Experimental data: US4943574A, “(1H-azol-1-ylmethyl) substituted benzotriazole derivatives and pharmaceutical compositions containing them” (Janssen Pharmaceutica N.V., priority 1989, dated 1990)
Counter-ions that a name gives are not always drawn.

What was measured:
aromatase [1] = biological target: T1, aromatase (Homo sapiens, UniProt P11511); assay: biochemical; settings: human placental microsomes, 30 min at 37° C., pH 7.4, 1,2[3H]androstenedione; read-out: IC50-values (concentration of the compound required to obtain 50% inhibition of the estrogen synthesis)
T1 sequence (P11511 1-503): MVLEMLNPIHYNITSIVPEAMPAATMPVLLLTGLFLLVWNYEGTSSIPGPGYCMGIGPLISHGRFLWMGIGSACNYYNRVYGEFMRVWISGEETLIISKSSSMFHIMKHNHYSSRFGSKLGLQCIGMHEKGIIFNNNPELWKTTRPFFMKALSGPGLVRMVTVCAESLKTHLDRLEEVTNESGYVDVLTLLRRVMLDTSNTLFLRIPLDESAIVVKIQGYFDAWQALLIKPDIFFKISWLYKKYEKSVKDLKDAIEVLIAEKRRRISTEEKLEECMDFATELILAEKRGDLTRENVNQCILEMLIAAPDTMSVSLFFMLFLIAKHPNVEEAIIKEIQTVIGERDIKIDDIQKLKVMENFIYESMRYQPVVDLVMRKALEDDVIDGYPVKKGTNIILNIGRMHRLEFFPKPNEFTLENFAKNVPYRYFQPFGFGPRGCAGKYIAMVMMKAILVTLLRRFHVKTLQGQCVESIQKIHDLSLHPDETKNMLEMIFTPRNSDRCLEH
Protocol: Human placental microsomes were diluted in potassium phosphate buffer (0.1M, pH 7.4) to give about 50% conversion of androgens to estrogens (protein content: about 0.5 mg). Four ml human placental microsomes were incubated in a final volume of 5 ml with 0.2 μCi1,2[3H]-androstenedione, 2 μg androstendione and 5 μl of test compound and/or dimethyl sulfoxide (DMSO). […] The reaction was initiated by the addition of androstenedione and proceeded for 30 min at 37° C. During the incubation period, the mixtures were gassed with air. In this assay, aromatization of androstenedione results in the production of [3H]-H2 O which is isolated by extracting the samples with chloroform to remove the free steroid.

aromatase [2] = assay: In vivo-inhibition of the aromatase activity (plasma estradiol in PMSG-injected immature female Wistar rats); design: species or system rat (immature female Wistar rats); settings: 1 mg/kg oral gavage, two hours following administration, PMSG-injected immature female Wistar rats
Protocol: Immature female Wistar rats weighing 120 g were injected subcutaneously with 200 I.U. of pregnant mare's serum gonadotropin (PMSG). […] Control animals received 20% polyethyleneglycol only. Two hours following drug or placebo administration the rats were killed by decapitation and trunk blood was collected on heparine. Plasma estradiol concentrations were measured by standard radio-immunological procedures.

aromatase [3] = settings: reported in Biochemical Pharmacology, 34, 1087 (1985); cited from earlier work

SMILES | IC50 (aromatase [1]) | % recovery estradiol (plasma estradiol relative to the controls) (aromatase [2]) | inhibition of the action of the enzyme aromatase (in words) (aromatase [3])
Clc1ccc(C(c2ccc3nnn(C4CCCCC4)c3c2)n2ccnc2)cc1 (centres unmarked) [Compound 117] | 12.5 nM | 9% | –
CCCCn1nnc2ccc(Cn3ccnc3)cc21 [Compound 147, 1-butyl-6-(1H-imidazol-1-ylmethyl)-1H-benzotriazole] | 7.6 nM | 21% | –
CC(C)On1nnc2ccc(Cn3ccnc3)cc21 [Compound 195, 6-(1H-imidazol-1-ylmethyl)-1-(1-methylethoxy)-1H-benzotriazole] | 12 nM | 19% | –
CCCCCOn1nnc2ccc(Cn3ccnc3)cc21 [Compound 201] | 6.7 nM | 19% | –
CCCCCCOn1nnc2ccc(Cn3ccnc3)cc21 [Compound 202] | 7.1 nM | 21% | –
CCCCOn1nnc2ccc(Cn3ccnc3)cc21.Cl [Compound 226, 1-butoxy-6-(1H-imidazol-1-ylmethyl)-1H-benzotriazole monohydrochloride] | 6.7 nM | 19% | –
Clc1ccccc1C(c1ccccc1)(c1ccccc1)n1ccnc1 [clotrimazole] | – | – | inhibit the action of the enzyme aromatase
CC(=O)N1CCN(c2ccc(OCC3COC(Cn4ccnc4)(c4ccc(Cl)cc4Cl)O3)cc2)CC1 (centres unmarked) [ketoconazole] | – | – | inhibit the action of the enzyme aromatase
Clc1ccc(COC(Cn2ccnc2)c2ccc(Cl)cc2Cl)c(Cl)c1 (centres unmarked) [miconazole] | – | – | inhibit the action of the enzyme aromatase

Second part, led by results:

IC50 (aromatase [1]) | SMILES | % recovery estradiol (plasma estradiol relative to the controls) (aromatase [2]) | inhibition of the action of the enzyme aromatase (in words) (aromatase [3])
9.2 nM | BrCCOn1nnc2ccc(Cn3ccnc3)cc21 [Compound 204] | 19% | –
7.3 nM | c1ccc(CCCOn2nnc3ccc(Cn4ccnc4)cc32)cc1 [Compound 207] | 26% | –
10 nM | CCOn1nnc2ccc(Cn3ccnc3)cc21.Cl [Compound 225, 1-ethoxy-6-(1H-imidazol-1-ylmethyl)-1H-benzotriazole monohydrochloride] | 19% | –
7.4 nM | CCCOn1nnc2ccc(Cn3ccnc3)cc21 [Compound 227, 6-(1H-imidazol-1-ylmethyl)-1-propoxy-1H-benzotriazole monohydrochloride. hemihydrate] | 19% | –
